In test [1] the test system is Human colon cancer cells (HCT116). Put plainly: Tumor cell proliferation inhibition (CCK-8), HCT116. Type of test: cell-based. The following applies: for inhibition at 100 µM: HCT-116, 100 μM of the compound, read-out: Anti-proliferative activity at 100 μM by concentration (%) HCT116 (tumor cell inhibition rate). As for the experimental part:
(§1) Human colon cancer cells (HCT116), human lung cancer cells (A549).
(§2) 1) The test cells in a logarithmic growth phase were trypsinized and counted, inoculated in a 96-well culture plate at a concentration of 5×10^4/mL, 100 μL per well (5×10^3 cells per well), and incubated at 37° C. in a 5% CO2 incubator for 24 h.
(§3) 2) A drug to be tested was diluted to different concentrations with McCoy'S 5A or RPMI 1640 complete medium. The experimental group was replaced with a culture solution containing different concentrations of the tested samples, and the control group was replaced with a culture solution containing the same volume of solvent (DMSO). Three parallel wells were set up in each group, and the culture was continued for 48 h in a 5% CO2 incubator at 37° C.
(§4) HCT116 cells used the McCoy'S 5A complete medium, and A549 cells used the RPMI 1640 complete medium.
(§5) 3) 10 μL of a CCK-8 solution was added to each well, incubated at 37° C. for 1 h to 4 h, and an absorbance (OD value) of each well at 490 nm was measured with a microplate reader.
(§6) 4) A survival rate and an inhibition rate were calculated with the following formulas:
(§7) Cell survival rate=[(As−Ab)/(Ac−Ab)]×100%
(§8) Inhibition rate=[(Ac−As)/(Ac−Ab)]×100%
(§9) An S-type dose-survival curve was plotted using GraphPad Prism 7.0 software and a nonlinear regression model, and IC50 values were calculated. • As: absorbance of the experimental well (medium containing cells, CCK-8, and the drug to be tested) • Ac: absorbance of control wells (medium containing cells, CCK-8, and solvent (DMSO)) • Ab: absorbance of blank wells (medium without cells and drug to be tested, CCK-8)

Test [2] relates to human lung cancer cells (A549). The test is described as follows: Tumor cell proliferation inhibition (CCK-8), A549. Type of test: cell-based. The following applies: 48 h; for inhibition at 100 µM: read-out: Anti-proliferative activity at 100 μM by concentration (%) A549 (tumor cell inhibition rate). As for the experimental part:
as §1, §2, §3, §4, §5, §6, §7, §8, §9

[3] abbreviates: Homo sapiens, 100 μM of the compound.

As usually defined, the IC50 is the concentration at which inhibition is half-maximal. Low values mean greater potency in that assay, high ones weaker potency in that assay. As for `C=C[C@]1(C)CC[C@@H](C(=C)C/C=C/c2ccc(-n3cncn3)cc2)C[C@H]1C(=C)C` [Compound 4], the inhibition at 100 µM amounted to 99.8 ± 0.08% in test [1] (Homo sapiens, 48 h) and 97.5 ± 0.4% in test [2] (setting [3]). The IC50 amounted to 50.9 ± 0.8 µM in test [1] (Homo sapiens, HCT-116, 48 h) and 57.2 ± 2.95 µM in test [2] (Homo sapiens).

Turning to `C=C[C@]1(C)CC[C@@H](C(=C)C/C=C/c2ccc(C(=O)OCC[C@@H](C)CCC=C(C)C)cc2)C[C@H]1C(=C)C` [Compound 6], the inhibition at 100 µM worked out at 21.7 ± 0.8% in test [1] (Homo sapiens, 48 h) and 14.4 ± 0.5% in test [2] (setting [3]).

As to `C=C[C@]1(C)CC[C@@H](C(=C)C/C=C/c2ccc(C(=O)OCCOc3ccc(/C(=C(/CCCl)c4ccccc4)c4ccccc4)cc3)cc2)C[C@H]1C(=C)C` [Compound 10], the inhibition at 100 µM in test [1] (Homo sapiens, 48 h) came to 13.5 ± 0.3%; in test [2] (setting [3]), 40.4 ± 0.6%.

On to `C=C[C@]1(C)CC[C@@H](C(=C)C)C[C@H]1C(=C)C` [β-elemene, reference compound], for which the “Anti-proliferative activity at 100 μM by concentration (%) HCT116 (tumor cell inhibition rate)” value in test [1] (100 μM of the compound, 48 h) was found to be 0.6 ± 0.5%. The IC50 in test [1] (48 h) amounted to 782 ± 51 µM; in test [2] it was 227 ± 1.2 µM. Besides, the “Anti-proliferative activity at 100 μM by concentration (%) A549 (tumor cell inhibition rate)” value in test [2] (100 μM of the compound) turned out to be 10.6 ± 0.5%.

The record behind these values is US20250161233A1, “VINYLATION COUPLED DERIVATIVE OF BETA-ELEMENE, AND PREPARATION METHOD AND USE THEREOF IN PREPARATION OF ANTITUMOR DRUG” (HANGZHOU NORMAL UNIVERSITY, priority 2022, published 2025).
